Legend:
Assay in all cases: relative viability (nuclei count vs DMSO), 5 days (fraction); higher = more cells survive
[1] = compound: CCC1=CN=CN=C1N2CCN(CC2)CC3=NC4=C(N3)C=C(C=C4)C(F)(F)F + N=C(N)NC(=N)NCCc1ccccc1 [Phenformin] (partner 250 µM)
Method in brief: (§1)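 Cells from lung cancer lines were seeded into 1536-well plates and, one day later, dosed by pin tool. Treatments were either a single drug or a fixed dose of an anchor drug with five library-drug doses (not always all listed) in √10 steps. After 5 days, nuclei were stained in a one-step fixation (final 0.05% Triton X-100, 1% formaldehyde, 1 ug/ml Hoechst) and counted on 4× images, and relative viability is the treated-to-vehicle nuclei ratio, as the median of duplicate plates.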

[2] = compound: CCC1=CN=CN=C1N2CCN(CC2)CC3=NC4=C(N3)C=C(C=C4)C(F)(F)F + C[C@@H](Oc1cc(-c2cnn(C3CCNCC3)c2)cnc1N)c1c(Cl)ccc(F)c1Cl [Crizotinib] (partner 1 µM)
Method in brief: as §1

[3] = compound: CCn1c(-c2nonc2N)nc2cnc(Oc3cccc(NC(=O)c4ccc(OCCN5CCOCC5)cc4)c3)cc21 + Cc1nc(Nc2ncc(C(=O)Nc3c(C)cccc3Cl)s2)cc(N2CCN(CCO)CC2)n1 [Dasatinib] (partner 0.075 µM)
Method in brief: as §1

Mirin + Bortezomib = compound: N=C1NC(=O)/C(=C/c2ccc(O)cc2)S1 [Mirin] + CC(C)C[C@H](NC(=O)[C@H](Cc1ccccc1)NC(=O)c1cnccn1)B(O)O [Bortezomib] (partner 0.002 µM)
Method in brief: as §1

| Cell Line | relative viability ([1]; first compound 0.04 µM) | relative viability ([1]; first compound 0.1265 µM) | relative viability ([1]; first compound 0.4 µM) | relative viability ([1]; first compound 1.265 µM) | relative viability ([1]; first compound 4 µM) | relative viability ([2]; first compound 0.04 µM) | relative viability ([2]; first compound 0.1265 µM) | relative viability ([2]; first compound 0.4 µM) | relative viability ([2]; first compound 1.265 µM) | relative viability ([2]; first compound 4 µM) | relative viability ([3]; first compound 0.04 µM) | relative viability ([3]; first compound 0.1265 µM) | relative viability ([3]; first compound 1.265 µM) | relative viability ([3]; first compound 4 µM) | relative viability (Mirin + Bortezomib; first compound 0.25 µM) | relative viability (Mirin + Bortezomib; first compound 0.7906 µM) | relative viability (Mirin + Bortezomib; first compound 2.5 µM) | relative viability (Mirin + Bortezomib; first compound 7.906 µM) | relative viability (Mirin + Bortezomib; first compound 25 µM) | relative viability ([3]; first compound 0.4 µM) |
| --- | --- | --- | --- | --- | --- | --- | --- | --- | --- | --- | --- | --- | --- | --- | --- | --- | --- | --- | --- | --- |
| HCC-78 | 0.614 | 0.618 | 0.637 | 0.588 | 0.555 | 0.304 | 0.3 | 0.345 | 0.322 | 0.379 | 0.428 | 0.474 | 0.4 | 0.428 | 0.449 | 1.03 | 0.524 | 0.397 | 0.424 |  |
| HCC-366 | 0.539 | 0.64 | 0.57 | 0.432 | 0.536 | 0.622 | 0.493 | 0.579 |  | 1.15 | 0.699 | 0.504 | 0.0451 | 0.0508 | 1.06 | 0.986 | 1.09 | 0.981 | 0.977 | 0.0838 |
| HCC-827 | 0.453 | 0.357 | 0.406 |  | 0.404 | 0.89 | 0.903 | 0.945 | 0.973 | 0.917 | 0.24 | 0.328 | 0.484 | 0.424 | 1.07 | 1.08 | 1.01 | 1.07 | 1.15 | 0.459 |
| HOP-62 | 0.47 | 0.664 | 0.655 | 0.653 | 0.616 | 0.777 | 1.09 | 0.931 | 1.06 | 0.896 | 0.511 | 0.344 | 0.172 | 0.17 | 0.727 | 0.867 | 0.725 |  | 0.836 | 0.179 |
| IA-LM |  |  |  |  |  | 0.907 | 0.763 | 0.94 | 0.669 | 0.759 |  |  |  |  | 0.687 | 0.961 | 0.757 | 0.632 | 0.845 |  |
| LC-2-ad | 0.52 | 0.547 | 0.604 | 0.495 | 0.679 | 0.501 | 0.431 | 0.503 | 0.749 | 0.852 | 0.957 | 0.717 | 0.309 | 0.479 | 0.996 | 1.07 | 1.03 | 0.907 | 1.03 | 0.343 |
| LCLC-97TM1 | 0.477 | 0.406 | 0.412 | 0.478 | 0.498 | 0.389 | 0.354 | 0.387 | 0.413 | 0.502 | 0.969 | 0.929 | 0.99 | 0.811 | 0.589 |  | 0.582 | 0.278 | 0.868 | 0.673 |
| LCLC-103H | 0.303 | 0.294 | 0.322 | 0.289 | 0.348 | 1.09 | 1.01 | 1.04 | 1 | 1.16 | 0.532 | 0.37 | 0.227 | 0.178 | 1.12 | 1.07 | 0.959 | 1.23 | 1.12 | 0.134 |
| LK-2 | 0.416 | 0.565 | 0.407 | 0.23 | 0.523 | 0.331 | 0.181 | 0.212 | 0.486 | 1.07 | 0.39 | 0.493 | 0.178 | 0.252 |  |  |  |  |  | 0.208 |
| LOU-NH91 | 0.605 | 0.692 | 0.685 | 0.669 | 0.714 | 0.695 | 0.696 | 0.761 | 0.779 | 0.801 | 0.524 | 0.454 | 0.273 | 0.304 | 0.417 |  | 0.47 | 0.455 | 0.503 | 0.312 |
| NCI-H358 | 0.345 | 0.289 | 0.372 | 0.317 | 0.349 | 0.581 | 0.73 | 0.92 | 1.15 | 1.68 | 0.162 | 0.195 | 0.219 | 0.141 |  |  |  |  |  | 0.169 |
| NCI-H522 | 0.628 | 0.583 | 0.571 | 0.64 | 0.601 |  |  |  |  |  | 0.735 | 0.797 | 0.614 | 0.667 |  |  |  |  |  | 0.656 |
| NCI-H1299 |  |  |  |  |  | 0.935 | 0.953 | 0.953 | 0.96 | 0.981 |  |  |  |  | 1.02 | 1.12 | 1.01 | 1.05 | 1.17 |  |
| NCI-H1395 | 0.41 | 0.436 | 0.444 | 0.415 | 0.458 |  |  |  |  |  | 0.398 | 0.37 | 0.317 | 0.345 |  |  |  |  |  | 0.342 |
| NCI-H1623 | 0.58 | 0.543 | 0.604 | 0.525 | 0.62 |  |  |  |  |  | 0.655 | 0.797 | 0.543 | 0.606 |  |  |  |  |  | 0.529 |
| NCI-H1703 |  |  |  |  |  | 1.07 | 0.697 | 0.775 | 0.858 | 1.23 |  |  |  |  | 0.449 | 0.483 | 0.347 |  | 0.227 |  |
| NCI-H1793 | 0.359 | 0.354 | 0.292 |  | 0.253 |  |  |  |  |  | 0.385 | 0.284 | 0.183 | 0.194 |  |  |  |  |  | 0.208 |
| NCI-H1944 | 0.239 | 0.188 | 0.187 | 0.162 | 0.227 | 1.21 | 0.988 | 1.13 |  | 1.23 | 0.192 | 0.154 | 0.157 | 0.139 |  |  |  |  |  | 0.138 |
| NCI-H2170 | 0.401 | 0.359 | 0.351 | 0.382 | 0.361 | 1.12 | 1.18 | 1.2 | 1.27 | 1.49 | 0.553 | 0.676 | 0.515 | 0.443 |  |  |  |  |  | 0.665 |
| NCI-H2342 | 0.579 | 0.477 | 0.611 | 0.429 | 0.547 |  |  |  |  |  | 0.332 | 0.319 | 0.289 | 0.302 |  |  |  |  |  | 0.294 |
| SK-MES-1 | 0.613 | 0.608 | 0.583 | 0.622 | 0.528 | 1.01 | 1.01 | 0.942 | 1.09 | 1.19 | 0.429 | 0.256 | 0.244 | 0.172 |  |  |  |  |  | 0.224 |
| SW 900 | 0.571 | 0.555 | 0.648 | 0.551 | 0.832 |  |  |  |  |  | 0.413 | 0.456 | 0.42 | 0.41 |  |  |  |  |  | 0.312 |
